Holding throughout (type): functional
In assay [1] the test system is A549. As to the kind of experiment: Growth inhibition of Homo sapiens (human) A549 cells at 10^-8 mol/l after 72 hr by MTT assay. Particulars: A549, 72 h, read-out: GI. In general terms: Tetrazolium assays rely on reduction of a dye to a coloured formazan, in cell work by metabolically active cells.
For assay [2], the system named is P388. The experiment in a line: Growth inhibition of Mus musculus (mouse) P388 cells at 10^-5 mol/l after 72 hr by MTT assay. The conditions noted are these: P388, 72 h, read-out: GI.
The subject of assay [3] is A549. As to the kind of experiment: Growth inhibition of Homo sapiens (human) A549 cells at 10^-4 mol/l after 72 hr by MTT assay. The conditions noted are these: A549, 72 h, read-out: GI.
Assay [4] deals with P388. The experiment in a line: Growth inhibition of Mus musculus (mouse) P388 cells at 10^-4 mol/l after 72 hr by MTT assay. Particulars: P388, 72 h, read-out: GI.
For assay [5], the system named is A549. As to the kind of experiment: Growth inhibition of Homo sapiens (human) A549 cells at 10^-6 mol/l after 72 hr by MTT assay. Particulars: A549, 72 h, read-out: GI.
Assay [6] concerns P388. The experiment in a line: Growth inhibition of Mus musculus (mouse) P388 cells at 10^-8 mol/l after 72 hr by MTT assay. Particulars: P388, 72 h, read-out: GI.
In assay [7] the test system is P388. The experiment in a line: Growth inhibition of Mus musculus (mouse) P388 cells at 10^-7 mol/l after 72 hr by MTT assay. The conditions noted are these: P388, 72 h, read-out: GI.
In assay [8] the test system is P388. As to the kind of experiment: Growth inhibition of Mus musculus (mouse) P388 cells at 10^-6 mol/l after 72 hr by MTT assay. Particulars: P388, 72 h, read-out: GI.
Assay [9] concerns A549. As to the kind of experiment: Growth inhibition of Homo sapiens (human) A549 cells at 10^-7 mol/l after 72 hr by MTT assay. Particulars: A549, 72 h, read-out: GI.
Assay [10] deals with A549. The experiment in a line: Growth inhibition of Homo sapiens (human) A549 cells at 10^-5 mol/l after 72 hr by MTT assay. The conditions noted are these: A549, 72 h, read-out: GI.

From ChEMBL document CHEMBL3046757, “Design, synthesis, and biological evaluation of novel pyridine acid esters of podophyllotoxin and esters of 4-demethylepipodophyllotoxin” (2007) come the findings set out here.

Structures are written as SMILES.

As for `COc1cc([C@@H]2c3cc4c(cc3[C@@H](OC(=O)c3ccncc3)[C@H]3COC(=O)[C@H]23)OCO4)cc(OC)c1O` [4-O-DEMETHYLEPIPODOPHYLLOTOXINYL-ISONICOTINATE], the inhibition of growth at 0.01 µM in [1] stood at 54%; in assay [6], 19.8%. The inhibition of growth at 10 µM in [2] came out at 86.9%; in [10], 67.8%. Also, the inhibition of growth at 100 µM in [3] came to 95.1%; in assay [4], 100%. Further, the inhibition of growth at 1 µM in [5] was determined as 66.4%; in assay [8], 76.5%. The inhibition of growth at 0.1 µM in [7] was found to be 53.5%; in [9], 66.1%.

As for `COc1cc([C@@H]2c3cc4c(cc3[C@@H](OC(=O)c3cccnc3)[C@H]3COC(=O)[C@H]23)OCO4)cc(OC)c1O` [4-O-DEMETHYLEPIPODOPHYLLOTOXINYL-NICOTINATE], the inhibition of growth at 0.01 µM is 71.9% in assay [1] and 4.4% in [6]. For the same compound, the inhibition of growth at 10 µM in assay [2] was found to be 87.9%; in assay [10], 79.9%. Moreover, the inhibition of growth at 100 µM is 91.4% in [3] and 100% in assay [4]. Also, the inhibition of growth at 1 µM was 74% in assay [5] and 72.1% in [8]. Moreover, the inhibition of growth at 0.1 µM came to 71.4% in assay [7] and 72.6% in assay [9].

For `COc1cc([C@@H]2c3cc4c(cc3[C@H](OC(=O)c3ccccn3)[C@H]3COC(=O)[C@H]23)OCO4)cc(OC)c1OC` [4-O-PODOPHYLLOTOXINYL-PICOLINATE], the values for the inhibition of growth at 0.01 µM in assay [1] and in [6] were 81.4% and 85.4%, respectively. Moreover, the inhibition of growth at 10 µM was 87% in assay [2] and 84% in [10]. For the same compound, the results for the inhibition of growth at 100 µM in [3] and in [4] were 89.2% and 87.7%, respectively. The inhibition of growth at 1 µM in assay [5] turned out to be 82.3%; in assay [8] it was 86%. The inhibition of growth at 0.1 µM was determined as 85.5% in assay [7] and 81.8% in [9].

Turning to `COc1cc([C@@H]2c3cc4c(cc3[C@H](OC(=O)c3cncc(Br)c3)[C@H]3COC(=O)[C@H]23)OCO4)cc(OC)c1OC` [4-O-PODOPHYLLOTOXINYL-5'-BROMONICOTINATE], the inhibition of growth at 0.01 µM in assay [1] was found to be 77.3%; in assay [6] it was 80.6%. The inhibition of growth at 10 µM was determined as 87.4% in assay [2] and 84.7% in assay [10]. Further, the inhibition of growth at 100 µM in [3] was 91.1%; in assay [4] it was 97.7%. Also, the inhibition of growth at 1 µM in assay [5] was determined as 82.7%; in assay [8] it was 85%. Also, the values for the inhibition of growth at 0.1 µM in assay [7] and in [9] were 82.8% and 80.9%, respectively.

With `COc1cc([C@@H]2c3cc4c(cc3[C@@H](OC(=O)c3ccc(Cl)nc3)[C@H]3COC(=O)[C@H]23)OCO4)cc(OC)c1O` [4-O-DEMETHYLEPIPODOPHYLLOTOXINYL-6'-CHLORONICOTINATE], the inhibition of growth at 0.01 µM in assay [1] was found to be 59.3%; in assay [6] it was 20.2%. Moreover, the inhibition of growth at 10 µM in assay [2] was 81.1%; in assay [10], 93.9%. The inhibition of growth at 100 µM in assay [3] turned out to be 85.4%; in assay [4] it was 100%. The inhibition of growth at 1 µM in assay [5] came to 72.5%; in assay [8], 73.4%. The inhibition of growth at 0.1 µM in [7] amounted to 28.4%; in [9], 70.7%.

`COc1cc([C@@H]2c3cc4c(cc3[C@@H](O[C@@H]3O[C@@H]5CO[C@@H](C)O[C@H]5[C@H](O)[C@H]3O)[C@H]3COC(=O)[C@H]23)OCO4)cc(OC)c1O` [ETOPOSIDE]: the figures for the inhibition of growth at 0.01 µM in assay [1] and in assay [6] were 0% and 1.8%, respectively. In addition, the results for the inhibition of growth at 10 µM in assay [2] and in [10] were 70.6% and 50.7%, respectively. Further, the inhibition of growth at 100 µM in [3] stood at 97.5%; in assay [4] it was 99.2%. Besides, the inhibition of growth at 1 µM stood at 45% in [5] and 25.5% in assay [8]. The inhibition of growth at 0.1 µM in [7] turned out to be 6%; in assay [9], 0%.

For `COc1cc([C@@H]2c3cc4c(cc3[C@@H](OC(=O)c3cncc(Br)c3)[C@H]3COC(=O)[C@H]23)OCO4)cc(OC)c1O` [4-O-DEMETHYLEPIPODOPHYLLOTOXINYL-5'-BROMONICOTINATE], the values for the inhibition of growth at 0.01 µM in assay [1] and in [6] were 71% and 2%, respectively. Besides, the inhibition of growth at 10 µM in assay [2] worked out at 87.4%; in assay [10], 82%. The inhibition of growth at 100 µM in assay [3] was determined as 87.3%; in assay [4] it was 100%. Also, the inhibition of growth at 1 µM was 78.4% in assay [5] and 66.1% in assay [8]. Further, the inhibition of growth at 0.1 µM in assay [7] is 63.5%; in assay [9], 74.6%.

With `COc1cc([C@@H]2c3cc4c(cc3[C@H](OC(=O)c3ccncc3)[C@H]3COC(=O)[C@H]23)OCO4)cc(OC)c1OC` [4-O-PODOPHYLLOTOXINYL-ISONICOTINATE], the inhibition of growth at 0.01 µM was 81.4% in [1] and 83.8% in assay [6]. Moreover, the inhibition of growth at 10 µM in assay [2] came to 85.1%; in assay [10] it was 84.4%. In addition, the inhibition of growth at 100 µM was 89.2% in [3] and 89% in [4]. For the same compound, the results for the inhibition of growth at 1 µM in [5] and in assay [8] were 82.6% and 84.8%, respectively. Also, the inhibition of growth at 0.1 µM in [7] was 84.8%; in [9], 81.8%.

Turning to `COc1cc([C@@H]2c3cc4c(cc3[C@H](OC(=O)c3cccnc3Cl)[C@H]3COC(=O)[C@H]23)OCO4)cc(OC)c1OC` [4-O-PODOPHYLLOTOXINYL-2'-CHLORONICOTINATE], the inhibition of growth at 0.01 µM worked out at 79.5% in [1] and 80.6% in assay [6]. The values for the inhibition of growth at 10 µM in assay [2] and in [10] were 85.8% and 82.5%, respectively. The values for the inhibition of growth at 100 µM in assay [3] and in assay [4] were 86.6% and 87.3%, respectively. The inhibition of growth at 1 µM in assay [5] was 81.3%; in [8], 85%. In addition, the inhibition of growth at 0.1 µM in [7] was determined as 84.7%; in [9] it was 80.4%.

For `COc1cc([C@@H]2c3cc4c(cc3[C@@H](OC(=O)c3cccnc3Cl)[C@H]3COC(=O)[C@H]23)OCO4)cc(OC)c1O` [4-O-DEMETHYLEPIPODOPHYLLOTOXINYL-2'-CHLORONICOTINATE], the inhibition of growth at 0.01 µM in [1] is 56.6%; in assay [6], 9.1%. The figures for the inhibition of growth at 10 µM in assay [2] and in [10] were 84.7% and 78.1%, respectively. For the same compound, the results for the inhibition of growth at 100 µM in assay [3] and in assay [4] were 92.5% and 100%, respectively. For the same compound, the inhibition of growth at 1 µM in [5] was found to be 69.8%; in assay [8], 72.3%. The inhibition of growth at 0.1 µM in assay [7] was determined as 12.8%; in [9] it was 62.5%.

Regarding `COc1cc([C@@H]2c3cc4c(cc3[C@H](OC(=O)c3cccnc3)[C@H]3COC(=O)[C@H]23)OCO4)cc(OC)c1OC` [4-O-PODOPHYLLOTOXINYL-NICOTINATE], the inhibition of growth at 0.01 µM in [1] came out at 81%; in assay [6], 83.4%. Besides, the inhibition of growth at 10 µM in assay [2] was determined as 84.8%; in [10], 84.9%. Besides, the inhibition of growth at 100 µM in assay [3] and in assay [4] was 87.5% in each case. Moreover, the inhibition of growth at 1 µM worked out at 82.8% in assay [5] and 84.1% in [8]. The inhibition of growth at 0.1 µM stood at 83.8% in [7] and 82.2% in [9].

As for `COc1cc([C@@H]2c3cc4c(cc3[C@@H](OC(=O)c3ccccn3)[C@H]3COC(=O)[C@H]23)OCO4)cc(OC)c1O` [4-O-DEMETHYLEPIPODOPHYLLOTOXINYL-PICOLINATE], the figures for the inhibition of growth at 0.01 µM in assay [1] and in assay [6] were 53.7% and 39.7%, respectively. Moreover, the inhibition of growth at 10 µM came out at 88.6% in assay [2] and 78.8% in [10]. Also, the inhibition of growth at 100 µM in assay [3] came out at 91.6%; in [4] it was 100%. In addition, the inhibition of growth at 1 µM came to 73.7% in assay [5] and 73.5% in [8]. Also, the inhibition of growth at 0.1 µM was determined as 68% in [7] and 56% in assay [9].

In the case of `COc1cc([C@@H]2c3cc4c(cc3[C@H](OC(=O)c3ccc(Cl)nc3)[C@H]3COC(=O)[C@H]23)OCO4)cc(OC)c1OC` [4-O-PODOPHYLLOTOXINYL-6'-CHLORONICOTINATE], the inhibition of growth at 0.01 µM in [1] is 81.5%; in assay [6], 80.1%. Moreover, the inhibition of growth at 10 µM in assay [2] was determined as 88.3%; in assay [10], 87%. Besides, the inhibition of growth at 100 µM is 87.9% in assay [3] and 92.1% in assay [4]. Also, the inhibition of growth at 1 µM was 85.9% in assay [5] and 85% in assay [8]. In addition, the results for the inhibition of growth at 0.1 µM in [7] and in assay [9] were 84.3% and 83%, respectively.
